Measured values reported in paper PMC12785453, “Oral Fluid Concentrations and Pharmacological Effects of Clephedrone and Methylone in Humans” (International Journal of Molecular Sciences, 2025).

Tested on: healthy volunteers
Assay: Physiological effects (SBP, DBP, HR, T), naturalistic observational clephedrone study
Assay type: in vivo, humans
Excerpt: The study evaluating the acute effects of clephedrone was designed as a non-controlled, prospective, observational, and naturalistic study. The procedures and evaluations included in this study have been described in previous studies evaluating other synthetic cathinones (mephedrone, methylone, alpha-PVP, NEP, HEXEN), phenethylamines (2C-B and 2C-E), or synthetic cannabinoids (JWH-122, JWH-210, UR-144).
This study consisted of one experimental session in which participants (N = 8; 6 women, 2 men) selected their oral dose of clephedrone based on their drug use experience and preferences. According to their dose selection, 3 women and 1 man ingested 100 mg of clephedrone, while the remaining 3 women and 1 man opted for a higher dose of 150 mg. […] Participants were recruited by word of mouth by the harm reduction organization Energy Control in Barcelona (Associació Benestar i Desenvolupament, ABD).
Participants of the naturalistic clephedrone study were summoned at 15:00 h at the private club where sessions were carried out. The club remained closed to the public until the end of the session, approximately at 21:00 h. As a naturalistic study, participants were left free to talk, read, play games, or listen to music in the time between study evaluations. To avoid possible influences between participants, they were asked to refrain from talking about the effects of the self-administered substance. The experimental sessions of the controlled pilot trial were carried out at the Clinical Research Unit (UPIC) of the Germans Trias i Pujol hospital, where participants were summoned at 7:45 a.m. after fasting overnight and remained there for approximately 11 h.
In the naturalistic clephedrone study, non-invasive systolic blood pressure (SBP), diastolic blood pressure (DBP), and heart rate (HR) were assessed, while subjects remained seated with an automatic Omron monitor (Omron, Healthcare, Kyoto, Japan) at baseline, 0.50, 1, 1.5, 2, 3, 4 and 5 h (h) after self-administration. Forehead cutaneous temperature was determined at the same time points using a cutaneous infrared thermometer.
For statistical analysis, values of physiological (SBP, DBP, HR, and T) and subjective effects (VAS, ARCI, and VESSPA-SSE) were baseline–adjusted. Maximum effects (Emax) and the time needed to reach maximum effects (Tmax) were determined, and the area under the curve up to 5 h (AUC0–5h) for clephedrone and up to 6 h (AUC0–6h) for methylone was calculated using the trapezoidal rule. Emax and AUC values are presented as mean ± standard deviation, whereas Tmax is presented in median (range).
To find possible significant changes through the time course compared to baseline, a Dunnett multiple comparison test was carried out to compare each time point with baseline in both drug conditions. For clephedrone the comparisons were 0–0.5 h, 0–1 h, 0–1.5 h, 0–2 h, 0–3 h, 0–4 h and 0–5 h, and for methylone this analysis included 0–0.25 h, 0–0.5 h, 0–0.75 h, 0–1 h, 0–1.5 h, 0–2 h, 0–3 h, 0–4 h and 0–6 h. Given their different study designs, no comparative analysis between the time courses of both synthetic cathinones was conducted.

[1] = 100 or 150 mg oral, n=8, listed as clephedrone
[2] = AUC0–5h, 100 or 150 mg oral, n=8

For `CNC(C)C(=O)c1ccc(Cl)cc1` (stereo not drawn) [Clephedrone, 4-chloromethcathinone], the “Onset of cardiovascular effects after self-administration” value (100 or 150 mg oral) was 2 h, the “Tmax of maximum effects on SBP, DBP and HR” value (100 or 150 mg oral) was 2.5 to 3.0 h and the “DBP Emax” value (100 or 150 mg oral, n=8) was 13.63 ± 11.74 mmHg. The “HR Emax” value (100 or 150 mg oral, n=8) was 17.19 ± 25.17 bpm, the “SBP Emax” value (100 or 150 mg oral, n=8) was 16.81 ± 13.11 mmHg and the “DBP Emax” value [1] was 13.6 mmHg. For the same compound, the “HR Emax” value [1] was 17.19 bpm, the “HR Tmax” value [1] was 3 h and the “SBP Emax” value [1] was 16.81 mmHg. For the same compound, the “DBP AUC0-5/6 h” value [2] was 32.64 ± 22.06 mmHg·h, the “HR AUC0-5/6 h” value [2] was 37.20 ± 40.72 bpm·h and the “SBP AUC0-5/6 h” value [2] was 41.77 ± 13.86 mmHg·h. The “T AUC0-5/6 h” value (AUC0–5h, forehead cutaneous temperature, 100 or 150 mg oral, n=8) was 1.25 ± 1.05 °C·h, the “Tolerability, serious adverse events” value (all administered doses (100 or 150 mg oral)) was “well tolerated” and the “T Emax” value (forehead cutaneous temperature, 100 or 150 mg oral, n=8) was 0.63 ± 0.35 °C.
